Assay [1] addresses T1, Glycerol-3-phosphate acyltransferase 3 (Homo sapiens) (UniProt Q53EU6).
T1 sequence (whole entry): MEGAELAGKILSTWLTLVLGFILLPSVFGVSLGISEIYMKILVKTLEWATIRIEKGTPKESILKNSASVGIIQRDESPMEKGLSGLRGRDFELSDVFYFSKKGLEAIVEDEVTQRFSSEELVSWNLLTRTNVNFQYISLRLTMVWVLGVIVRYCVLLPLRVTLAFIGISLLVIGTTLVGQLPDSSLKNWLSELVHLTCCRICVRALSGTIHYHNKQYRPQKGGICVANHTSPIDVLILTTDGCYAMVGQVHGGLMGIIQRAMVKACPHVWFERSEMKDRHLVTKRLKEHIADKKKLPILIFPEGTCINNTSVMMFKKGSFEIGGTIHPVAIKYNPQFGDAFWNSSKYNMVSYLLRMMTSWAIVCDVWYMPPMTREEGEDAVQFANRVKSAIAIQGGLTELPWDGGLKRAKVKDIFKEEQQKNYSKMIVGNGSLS
Briefly: Inhibition of GPAT3 (unknown origin) expressed in Sf9 cell membranes assessed as reduction in glycerol 3-phosphate acyltransferase activity at 0.3 uM using [3H]-glycerol 3-phosphate and palmitoyl CoA incubated for 60 mins by scintillation counting assay relative to control.

Assay [2] has as its target T2, Mesoderm-specific transcript homolog protein (Homo sapiens) (UniProt Q5EB52).
T2 sequence (whole entry): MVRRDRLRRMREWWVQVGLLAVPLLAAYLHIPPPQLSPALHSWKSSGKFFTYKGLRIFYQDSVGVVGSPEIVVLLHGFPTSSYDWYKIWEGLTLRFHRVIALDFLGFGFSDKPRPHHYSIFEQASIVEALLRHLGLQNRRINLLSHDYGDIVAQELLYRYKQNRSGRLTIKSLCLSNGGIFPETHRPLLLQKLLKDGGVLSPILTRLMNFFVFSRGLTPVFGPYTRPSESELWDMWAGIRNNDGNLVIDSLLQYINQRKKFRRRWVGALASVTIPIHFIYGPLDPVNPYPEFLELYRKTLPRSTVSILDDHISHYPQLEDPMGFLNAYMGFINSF
Briefly: Inhibition of human recombinant MEST T579B (2 to 335 amino acids) expressed in Sf9 cell membranes assessed as reduction in glycerol 3-phosphate acyltransferase activity using [3H]-glycerol 3-phosphate and palmitoyl CoA incubated for 60 mins by scintillation counting assay.

Assay [3] deals with T1, Glycerol-3-phosphate acyltransferase 3 (Homo sapiens). Briefly: Inhibition of GPAT3 (unknown origin) expressed in Sf9 cell membranes assessed as reduction in glycerol 3-phosphate acyltransferase activity at 0.1 uM using [3H]-glycerol 3-phosphate and palmitoyl CoA incubated for 60 mins by scintillation counting assay relative to control.
Assay [4] addresses T2, Mesoderm-specific transcript homolog protein (Homo sapiens). The assay can be described thus: Inhibition of human recombinant MEST T580B (11 to 335 amino acids) expressed in Sf9 cell membranes assessed as reduction in glycerol 3-phosphate acyltransferase activity at 10 uM using [3H]-glycerol 3-phosphate and palmitoyl CoA incubated for 60 mins by scintillation counting assay relative to control.

Assay [5] concerns the target T3, Glycerol-3-phosphate acyltransferase 1, mitochondrial (Homo sapiens) (UniProt Q9HCL2).
T3 sequence (whole entry): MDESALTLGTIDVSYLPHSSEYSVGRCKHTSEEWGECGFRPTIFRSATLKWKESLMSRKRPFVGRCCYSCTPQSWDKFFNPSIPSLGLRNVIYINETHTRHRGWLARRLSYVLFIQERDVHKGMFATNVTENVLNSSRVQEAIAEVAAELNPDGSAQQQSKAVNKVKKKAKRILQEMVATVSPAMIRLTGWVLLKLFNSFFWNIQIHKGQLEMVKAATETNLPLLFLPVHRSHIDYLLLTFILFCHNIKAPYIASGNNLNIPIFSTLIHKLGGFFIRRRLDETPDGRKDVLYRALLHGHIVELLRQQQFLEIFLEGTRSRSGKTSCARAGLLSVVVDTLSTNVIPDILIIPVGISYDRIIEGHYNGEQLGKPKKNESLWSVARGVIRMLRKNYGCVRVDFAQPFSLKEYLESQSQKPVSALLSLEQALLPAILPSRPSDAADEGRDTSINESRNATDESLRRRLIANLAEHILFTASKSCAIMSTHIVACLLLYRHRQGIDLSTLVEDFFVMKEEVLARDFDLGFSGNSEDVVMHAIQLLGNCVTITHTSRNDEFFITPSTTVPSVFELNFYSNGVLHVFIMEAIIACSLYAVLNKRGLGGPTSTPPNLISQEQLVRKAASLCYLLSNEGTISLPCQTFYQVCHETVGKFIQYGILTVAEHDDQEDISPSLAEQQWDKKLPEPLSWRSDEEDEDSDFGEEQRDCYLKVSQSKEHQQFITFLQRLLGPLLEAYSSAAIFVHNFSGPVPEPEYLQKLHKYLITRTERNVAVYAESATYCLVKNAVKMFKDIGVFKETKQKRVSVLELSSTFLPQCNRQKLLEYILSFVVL
Briefly: Inhibition of GPAT1 (unknown origin) expressed in Sf9 cell membranes assessed as reduction in glycerol 3-phosphate acyltransferase activity at 0.1 uM using [3H]-glycerol 3-phosphate and palmitoyl CoA incubated for 60 mins by scintillation counting assay relative to control.

Assay [6] addresses T2, Mesoderm-specific transcript homolog protein (Homo sapiens). Briefly: Inhibition of human recombinant MEST T580B (11 to 335 amino acids) expressed in Sf9 cell membranes assessed as reduction in glycerol 3-phosphate acyltransferase activity at 0.1 uM using [3H]-glycerol 3-phosphate and palmitoyl CoA incubated for 60 mins by scintillation counting assay relative to control.

For assay [7], the target named is T3, Glycerol-3-phosphate acyltransferase 1, mitochondrial (Homo sapiens). The assay can be described thus: Inhibition of GPAT1 (unknown origin) expressed in Sf9 cell membranes assessed as reduction in glycerol 3-phosphate acyltransferase activity at 0.03 uM using [3H]-glycerol 3-phosphate and palmitoyl CoA incubated for 60 mins by scintillation counting assay relative to control.

The target in assay [8] is T2, Mesoderm-specific transcript homolog protein (Homo sapiens). Briefly: Inhibition of human recombinant MEST T580B (11 to 335 amino acids) expressed in Sf9 cell membranes assessed as reduction in glycerol 3-phosphate acyltransferase activity at 0.3 uM using [3H]-glycerol 3-phosphate and palmitoyl CoA incubated for 60 mins by scintillation counting assay relative to control.

Assay [9] concerns the target T4, Glycerol-3-phosphate acyltransferase 4 (Homo sapiens) (UniProt Q86UL3).
T4 sequence (whole entry): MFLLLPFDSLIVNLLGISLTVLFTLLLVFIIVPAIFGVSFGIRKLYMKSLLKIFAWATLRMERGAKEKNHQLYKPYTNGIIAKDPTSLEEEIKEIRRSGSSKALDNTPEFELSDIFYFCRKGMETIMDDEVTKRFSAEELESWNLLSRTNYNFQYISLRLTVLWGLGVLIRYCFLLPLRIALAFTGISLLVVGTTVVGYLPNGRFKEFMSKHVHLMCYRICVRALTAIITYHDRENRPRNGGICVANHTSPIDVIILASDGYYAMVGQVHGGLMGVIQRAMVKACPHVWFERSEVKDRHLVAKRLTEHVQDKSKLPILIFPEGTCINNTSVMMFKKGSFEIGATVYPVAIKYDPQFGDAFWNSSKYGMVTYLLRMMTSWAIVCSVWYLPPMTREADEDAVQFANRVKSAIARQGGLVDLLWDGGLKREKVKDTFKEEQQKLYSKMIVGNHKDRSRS
The assay can be described thus: Inhibition of GPAT4 (unknown origin) expressed in Sf9 cell membranes assessed as reduction in glycerol 3-phosphate acyltransferase activity at 0.3 uM using [3H]-glycerol 3-phosphate and palmitoyl CoA incubated for 60 mins by scintillation counting assay relative to control.

Assay [10] concerns the target T4, Glycerol-3-phosphate acyltransferase 4 (Homo sapiens). Briefly: Inhibition of GPAT4 (unknown origin) expressed in Sf9 cell membranes assessed as reduction in glycerol 3-phosphate acyltransferase activity at 3 uM using [3H]-glycerol 3-phosphate and palmitoyl CoA incubated for 60 mins by scintillation counting assay relative to control.
The target in assay [11] is T2, Mesoderm-specific transcript homolog protein (Homo sapiens). Briefly: Inhibition of human recombinant MEST T579B (2 to 335 amino acids) expressed in Sf9 cell membranes assessed as reduction in glycerol 3-phosphate acyltransferase activity at 3 uM using [3H]-glycerol 3-phosphate and palmitoyl CoA incubated for 60 mins by scintillation counting assay relative to control.

Assay [12] has as its target T3, Glycerol-3-phosphate acyltransferase 1, mitochondrial (Homo sapiens). The assay can be described thus: Inhibition of GPAT1 (unknown origin) expressed in Sf9 cell membranes assessed as reduction in glycerol 3-phosphate acyltransferase activity at 0.3 uM using [3H]-glycerol 3-phosphate and palmitoyl CoA incubated for 60 mins by scintillation counting assay relative to control.

The target of assay [13] is T2, Mesoderm-specific transcript homolog protein (Homo sapiens). Briefly: Inhibition of human recombinant MEST T579B (2 to 335 amino acids) expressed in Sf9 cell membranes assessed as reduction in glycerol 3-phosphate acyltransferase activity at 0.03 uM using [3H]-glycerol 3-phosphate and palmitoyl CoA incubated for 60 mins by scintillation counting assay relative to control.

For assay [14] the target is unchanged. Briefly: Inhibition of human recombinant MEST T580B (11 to 335 amino acids) expressed in Sf9 cell membranes assessed as reduction in glycerol 3-phosphate acyltransferase activity at 0.03 uM using [3H]-glycerol 3-phosphate and palmitoyl CoA incubated for 60 mins by scintillation counting assay relative to control.
Assay [15] deals with T3, Glycerol-3-phosphate acyltransferase 1, mitochondrial (Homo sapiens). The assay can be described thus: Inhibition of GPAT1 (unknown origin) expressed in Sf9 cell membranes assessed as reduction in glycerol 3-phosphate acyltransferase activity at 10 uM using [3H]-glycerol 3-phosphate and palmitoyl CoA incubated for 60 mins by scintillation counting assay relative to control.

Assay [16] has the same target. The assay can be described thus: Inhibition of GPAT1 (unknown origin) expressed in Sf9 cell membranes assessed as reduction in glycerol 3-phosphate acyltransferase activity at 1 uM using [3H]-glycerol 3-phosphate and palmitoyl CoA incubated for 60 mins by scintillation counting assay relative to control.

As a reminder, the inhibition is the change of the read-out against control, counted positive when it falls.

Regarding `O=C(CO)COP(=O)(O)O`, the inhibition in [1] was 12%; in [2], “Dose-dependent effect”; in [3], -4%; in assay [4], 76%; in assay [5] it was 10%; in assay [6] it was 10%. Moreover, the inhibition in [7] is 4%; in assay [8] it was 8%; in assay [9], 15%; in assay [10] it was 29%; in assay [11] it was 51%; in assay [12], 11%. Further, the inhibition in [13] was -5%; in [14] it was -6%; in assay [15], 72%; in assay [16], 29%.

The record behind these values is ChEMBL document CHEMBL4482303, “Test system for measuring mest activity as well as methods and uses involving the same” (2012).
